Assay results: patent US11384113B2, “Cobalamin derivatives and their use for the treatment of diseases caused by lack of vitamin B12 supply” (Albert-Ludwigs-Universitaet Freiburg, priority 2017, dated 2022)
Where a chain is given by its changes, count along the chain named. Read-outs that look alike come from different tables or passages of the source.

How the values were obtained:
[1] = Concentration-dependent reaction rate of aquacobalamin with thiol ligand forming thiolatocobalamin (time-resolved UV-visible spectroscopy); type: physicochemical; details: pH 7.2, l = 1, sodium triflate
Protocol: The UV-visible spectra of newly synthesized cobalamin derivatives was determined in EPPS buffer (40 mM, pH 7.6, l=1.0 M with sodium triflate). The reaction of aquacobalamin with cysteamine and mercaptopropionylglycine was monitored by time-resolved spectral scanning of reactions containing a fixed amount of aquacobalamin (10-25 μM (micromolar)) and various concentrations of the ligand.
Mercaptopropionylglycine reacted readily with aquacobalamin to form a stable MPGCbl complex at pH 7.2.
A fixed concentration of aquacobalamin was reacted with varying concentrations of the ligand MPG. The reaction was monitored by time-resolved UV-visible spectroscopy for a total of 50 minutes (FIG. 5). The spectral changes were consistent with the conversion of aquacobalamin into MPGCbl (FIG. 5 a) via a mechanism that involves no detectable reaction intermediates. Initial and final spectra are analyzed to confirm the identity of the thiolatocobalamin product (FIG. 5 b). Time courses were generated at the absorption maxima of each species (350 nm, H2OCbl^+, and 372 nm, MPGCbl) (FIG. 5 c).

[2] = biological target: T1, human recombinant CblC wild type (Homo sapiens, UniProt Q9Y4U1); type: biochemical; details: for Half-life of beta-axial ligand removal, Wild type CblC: human, pH 7.6
T1 sequence (Q9Y4U1 1-282): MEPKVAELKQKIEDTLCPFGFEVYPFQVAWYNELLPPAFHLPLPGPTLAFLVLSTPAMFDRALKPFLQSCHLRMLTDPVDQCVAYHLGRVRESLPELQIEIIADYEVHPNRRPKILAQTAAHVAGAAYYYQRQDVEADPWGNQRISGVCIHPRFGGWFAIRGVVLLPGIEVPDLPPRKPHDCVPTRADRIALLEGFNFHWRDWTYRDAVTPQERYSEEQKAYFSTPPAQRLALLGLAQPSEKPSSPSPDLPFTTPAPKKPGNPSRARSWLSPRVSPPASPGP
Protocol: (§1) The ability of the newly synthesized Cbl derivatives to serve as substrates for CblC was examined (FIG. 12). CblC activity was measured by UV-visible spectroscopy according to published procedures. Analysis of reaction products was performed by mass spectrometry. We measured dealkylation and de-thiolation of Co—C and Co—S bonded Cbl derivatives, respectively, by wild type and mutant CblC proteins to determine whether these reactions could be supported in patients harboring an abnormal isoform of CblC with low or no enzymatic activity.
The enzymatic activity of CblC in the presence of CyaCbl and MPGCbl as substrates was evaluated under the same experimental conditions utilized to examine dealkylation of MeCbl and AdoCbl. […] The reaction was complete in less than 10 seconds, which is the time it takes to record the first spectrum after mixing of CblC-bound to CyaCbl or MPGCbl with 5 mM GSH (FIG. 12).
(§2) First, the ability of novel cobalamins described herein was tested to act as substrate for wild type CblC and to restore the lost activity of pathogenic variants, such as mutant Arg161Gly, that leads to early-onset form of the cblC disease.

[3] = biological target: T2, human recombinant CblC pathogenic mutant Arg161Gly (Homo sapiens, UniProt Q9Y4U1, R161G); type: biochemical; details: for Product under ambient conditions, Mutant Arg161Gly: dethiolation, 50 μM GSH; for Half-life of beta-axial ligand removal, Mutant Arg161Gly: human, pH 7.6
T2 sequence (Q9Y4U1 1-282 R161G): T1 sequence (Q9Y4U1 1-282) with R161G
Protocol: as §1, §2

[4] = tested on: fibroblasts from healthy subjects; assay: MMA in conditioned medium of control fibroblasts; type: cell-based, human
Source text: (§3) Cultured cells from control (healthy neonatal subjects) or cblC fibroblasts were supplemented without exogenous Cbl (negative control), with commercial CNCbl (current therapy control) or with the newly synthesized cobalamins (test group). The ability of these compounds to support intracellular Cbl metabolism in the absence of CblC was examined by monitoring disease biomarker metabolites Hcy and MMA levels in the conditioned medium.
(§4) The cellular response to treatment with new derivatives CyaCbl and MPGCbl in comparison with current therapeutic form CNCbl was measured. The ability of the new cobalamin derivatives CyaCbl and MPGCbl to achieve metabolic control, i.e. reduction of for example MMA production by cblC fibroblasts in culture, was examined as described in previously published experimental protocols. FIG. 13 provides a comparison of the effect of CNCbl (0.001 mM) versus the same dose of CyaCbl or MPGCbl given to cultured fibroblasts from healthy subjects (HFF, NHDF, PCS, Wiesel, Control) or from cblC patients (WG1801, WG2176, WG3354, GM10011, GM02345B, GM02452C).
(§5) Additional examination of the effect of thiolatocobalamins CyaCbl and MPGCbl and sulfur-containing alkylcobalamin Me-S-MeCbl with respect to structural analogues that are NOT available for therapy was also carried out, for comparative purposes. The results of cellular response (healthy controls and cblC patient fibroblasts) to cobalamin treatment, as reflected by MMA levels is provided in Table 6.

[5] = tested on: fibroblasts isolated from patients with cblC disease; assay: MMA in conditioned medium of cblC patient fibroblasts; type: cell-based, human
Source text: as §3, §4, §5

[6] = pH 7.72, l = 0.5, KNO3; cited from earlier work
[7] = biological target: T1, human recombinant CblC wild type; type: biochemical; details: dethiolation; 50 μM GSH
human wild type CblC = biological target: T3, human wild type CblC (Homo sapiens, UniProt Q9Y4U1); assay: Binding to CblC and conversion to base-off configuration (UV-visible spectrophotometry); details: pH 7.6, EPPS buffer 0.04 M
T3 sequence (Q9Y4U1 1-282): T1 sequence (Q9Y4U1 1-282)
Protocol: An important aspect for the bioactivity of the new compounds is their ability to bind to the processing enzyme CblC, and to undergo conversion to the base-off configuration, which enhances their reactivity. This is a critical step in all intracellular pathways of vitamin B12 metabolism that are involved in pathogenesis, and certainly, relevant to the cblC disease itself. […] Binding studies were conducted at pH 7.6 (EPPS buffer, 0.04 M) and analyzed by UV-visible spectrophotometry.

[8] = UV-visible spectrum of purified cobalamin in water (base-off configuration without CblC); type: physicochemical; details: after acetone precipitation and vacuum filtration
cultured fibroblasts = assay: Cytotoxicity and cellular transport observed in cultured fibroblast experiments; type: cell-based, human
[9] = Controls (group value), after 7 days
[10] = Controls, after 7 days wash-off period without supplemental cobalamin
[11] = HFF control fibroblasts, after 7 days
[12] = NHDF control fibroblasts, after 7 days
[13] = Wiezel control fibroblasts, after 7 days
[14] = GM02345B cblC fibroblasts, after 7 days
[15] = GM02452C cblC fibroblasts, after 7 days
[16] = GM10011 cblC fibroblasts, after 7 days
[17] = WG1801 cblC fibroblasts, after 7 days
[18] = WG2176 cblC fibroblasts, after 7 days
[19] = WG3354 cblC fibroblasts, after 7 days
[20] = cblC patients (group value), after 7 days
[21] = cblC patients, after 7 days wash-off period without supplemental cobalamin

In the case of `C/C1=C2N=C(/C=C3N=C(/C(C)=C4\[N-]C(C(CC(N)=O)C4(C)CCC(=O)NCC(C)OP(=O)([O-])OC4C(CO)OC(n5cnc6cc(C)c(C)cc65)C4O)C4(C)N=C1C(CCC(N)=O)C4(C)CC(N)=O)C(CCC(N)=O)C\3(C)C)C(CCC(N)=O)C/2(C)CC(N)=O.NC(CCC(=O)NC(C[S-])C(=O)NCC(=O)O)C(=O)O.[Co+3]` (centres unmarked) [GSCbl, glutathionylcobalamin, reference compound], the “K, concentration-dependent reaction rate (formation from aquacobalamin)” value (shortened to “K, concentration-dependent reaction rate”) [1] was 20.74 M⁻¹ s⁻¹, the “Half-life of beta-axial ligand removal, Wild type CblC” value [2] was 2.5 min and the “Fold less proficient support of the CblC reaction than MPGCbl and CyaCbl” value ([2]; wild type and pathogenic variant Arg161Gly) was 4-5 fold. The “Product under ambient conditions, Mutant Arg161Gly” value [3] was “H2OCbl”, the “Half-life of beta-axial ligand removal, Mutant Arg161Gly” value [3] was 9.8 min and the “MMA in conditioned medium” value [4, 9] was 0.106 μmol/mg protein. The “MMA in conditioned medium” value [4, 10] was 0.134 μmol/mg protein, the “MMA in conditioned medium” value [4, 11] was 0.105 μmol/mg protein and the “MMA in conditioned medium” value [4, 12] was 0.078 μmol/mg protein. For the same compound, the “MMA in conditioned medium” value [4, 13] was 0.135 μmol/mg protein, the “MMA in conditioned medium” value [5, 14] was 0.223 μmol/mg protein and the “MMA in conditioned medium” value [5, 15] was 0.167 μmol/mg protein. For the same compound, the “MMA in conditioned medium” value [5, 16] was 0.052 μmol/mg protein, the “MMA in conditioned medium” value [5, 17] was 0.198 μmol/mg protein and the “MMA in conditioned medium” value [5, 18] was 0.316 μmol/mg protein. For the same compound, the “MMA in conditioned medium” value [5, 19] was 0.269 μmol/mg protein, the “MMA in conditioned medium” value [5, 20] was 0.204 μmol/mg protein and the “MMA in conditioned medium” value [5, 21] was 0.275 μmol/mg protein. The “K, concentration-dependent reaction rate” value [6] was 18.09 M⁻¹ s⁻¹ and the “Product under ambient conditions, Wild type CblC” value [7] was “H2OCbl”.
For `CC([S][Co+2])C(=O)NCC(=O)O.CC1=C2N=C(C=C3N=C(C(C)=C4[N-]C(C(CC(N)=O)C4(C)CCC(=O)NCC(C)OP(=O)([O-])OC4C(CO)OC(n5cnc6cc(C)c(C)cc65)C4O)C4(C)N=C1C(CCC(N)=O)C4(C)CC(N)=O)C(CCC(N)=O)C3(C)C)C(CCC(N)=O)C2(C)CC(N)=O` (centres unmarked) [MPGCbl], the “K, concentration-dependent reaction rate” value [1] was 39.71 M⁻¹ s⁻¹, the “Effect of binding to human wild type CblC on configuration” value (human wild type CblC) was “induces their base-off configuration” and the “Configuration in the absence of the CblC protein” value [8] was “at least a fraction of this Cbl derivative may exist in its base-off configuration”. The “Product of the reaction” value ([2]; cobalamin bound to human CblC, in the presence of GSH) was “H2OCbl^+”, the “Half-life of beta-axial ligand removal, Wild type CblC” value [2] was <0.5 min and the “Product under ambient conditions, Mutant Arg161Gly” value [3] was “H2OCbl”. For the same compound, the “Half-life of beta-axial ligand removal, Mutant Arg161Gly” value [3] was 1.5 min, the “MMA in conditioned medium” value [4, 9] was 0.120 μmol/mg protein and the “MMA in conditioned medium” value [4, 10] was 0.121 μmol/mg protein. For the same compound, the “MMA in conditioned medium” value [4, 11] was 0.116 μmol/mg protein, the “MMA in conditioned medium” value [4, 12] was 0.096 μmol/mg protein and the “MMA in conditioned medium” value [4, 13] was 0.148 μmol/mg protein. For the same compound, the “Reduction of MMA to the levels of healthy fibroblasts, compared with CNCbl” value ([5]; 0.001 mM, same dose as CNCbl, FIG. 13) was “far superior compared to CNCbl”, the “MMA in conditioned medium” value [5, 14] was 0.182 μmol/mg protein and the “MMA in conditioned medium” value [5, 15] was 0.190 μmol/mg protein. The “MMA in conditioned medium” value [5, 16] was 0.087 μmol/mg protein, the “MMA in conditioned medium” value [5, 17] was 0.212 μmol/mg protein and the “MMA in conditioned medium” value [5, 18] was 0.216 μmol/mg protein. The “MMA in conditioned medium” value [5, 19] was 0.183 μmol/mg protein, the “MMA in conditioned medium” value [5, 20] was 0.178 μmol/mg protein and the “MMA in conditioned medium” value [5, 21] was 0.185 μmol/mg protein. For the same compound, the “Transport into the cells” value (cultured fibroblasts; canonical TC transporter and its cellular receptor CD320) was “transported successfully into the cells”, the Cytotoxicity (cultured fibroblasts; under the experimental conditions of the fibroblast cultures) was “not cytotoxic” and the “Product under ambient conditions, Wild type CblC” value [7] was “H2OCbl”.
